Source: PMC6230509 (Neuropharmacology, 2018)

Experiments:
5-HT1B = 5-HT1B (Homo sapiens, UniProt P28222); assay: NIMH PDSP radioligand competition binding, 5-HT1B
D1 = D1 (Homo sapiens, UniProt P21728); assay: NIMH PDSP radioligand competition binding, D1
α1A = biological target: T1, α1A (Homo sapiens, UniProt P35348); assay: NIMH PDSP radioligand competition binding, α1A
T1 sequence (P35348 1-466): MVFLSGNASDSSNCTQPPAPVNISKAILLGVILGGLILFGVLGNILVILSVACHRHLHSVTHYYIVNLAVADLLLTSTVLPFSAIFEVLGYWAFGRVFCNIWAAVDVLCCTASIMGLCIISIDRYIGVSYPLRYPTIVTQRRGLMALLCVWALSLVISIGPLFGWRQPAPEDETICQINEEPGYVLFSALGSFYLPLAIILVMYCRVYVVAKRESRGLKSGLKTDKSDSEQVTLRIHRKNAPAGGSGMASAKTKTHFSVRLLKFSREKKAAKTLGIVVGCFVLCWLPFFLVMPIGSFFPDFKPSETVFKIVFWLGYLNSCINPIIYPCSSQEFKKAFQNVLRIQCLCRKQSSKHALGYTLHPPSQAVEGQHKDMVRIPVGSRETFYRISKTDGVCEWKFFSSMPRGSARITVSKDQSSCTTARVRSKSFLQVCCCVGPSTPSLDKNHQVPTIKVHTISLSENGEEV

σ1 = σ1 (Rattus norvegicus, UniProt Q9R0C9); assay: NIMH PDSP radioligand competition binding, σ1
Chain of σ1 (Q9R0C9 whole entry): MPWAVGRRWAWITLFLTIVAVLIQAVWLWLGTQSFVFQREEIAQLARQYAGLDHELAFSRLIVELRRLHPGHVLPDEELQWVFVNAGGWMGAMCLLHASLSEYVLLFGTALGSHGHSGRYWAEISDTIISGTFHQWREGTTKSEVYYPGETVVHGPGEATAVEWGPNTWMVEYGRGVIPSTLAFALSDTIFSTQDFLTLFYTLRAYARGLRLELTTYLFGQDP

[1] = Binding Affinity (Ki, nM), [3H]SCH23390, cloned human receptor

Chain of D1 (P21728 whole entry): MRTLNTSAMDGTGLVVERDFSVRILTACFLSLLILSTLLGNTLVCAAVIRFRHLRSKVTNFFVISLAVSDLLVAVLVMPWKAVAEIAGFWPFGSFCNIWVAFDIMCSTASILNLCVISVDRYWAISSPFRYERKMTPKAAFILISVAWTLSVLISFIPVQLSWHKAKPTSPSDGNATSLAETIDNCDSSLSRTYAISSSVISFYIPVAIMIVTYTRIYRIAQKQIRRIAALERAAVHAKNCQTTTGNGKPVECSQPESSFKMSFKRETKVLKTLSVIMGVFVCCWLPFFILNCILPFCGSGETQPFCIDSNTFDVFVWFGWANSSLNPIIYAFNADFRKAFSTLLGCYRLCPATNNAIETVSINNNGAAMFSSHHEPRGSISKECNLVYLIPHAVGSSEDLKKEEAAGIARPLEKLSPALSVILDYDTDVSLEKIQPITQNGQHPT
Chain of 5-HT1B (P28222 whole entry): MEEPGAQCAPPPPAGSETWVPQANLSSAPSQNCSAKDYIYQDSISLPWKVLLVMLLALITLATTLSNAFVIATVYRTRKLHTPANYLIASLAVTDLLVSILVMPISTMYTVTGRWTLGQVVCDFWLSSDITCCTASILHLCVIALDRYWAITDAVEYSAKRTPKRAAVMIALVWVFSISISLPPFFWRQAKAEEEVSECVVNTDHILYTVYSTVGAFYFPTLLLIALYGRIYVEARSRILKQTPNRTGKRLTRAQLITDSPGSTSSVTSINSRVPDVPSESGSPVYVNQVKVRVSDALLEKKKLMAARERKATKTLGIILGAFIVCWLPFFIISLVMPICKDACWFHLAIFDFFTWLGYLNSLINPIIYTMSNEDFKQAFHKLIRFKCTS

Compound	Ki (5-HT1B)	Ki (D1; [1])	Ki (α1A)	Ki (σ1)	σ1 affinity, fold higher than the parent compound (σ1; relative to DALT)	Ki (D1; Ki value, bound stated)
C=CCN(CC=C)CCc1c[nH]c2cccc(OC(C)=O)c12 [4-AcO-DALT, 4-acetoxy-N,N-diallyltryptamine]	> 10000 nM	> 10000 nM	> 10000 nM	299 nM		
C=CCN(CC=C)CCc1c(C)[nH]c2ccc(F)cc12 [5-F-2-Me-DALT, 5-fluoro-2-methyl-N,N-diallyltryptamine]	2010 nM	> 10000 nM	1570 nM	531 nM		
C=CCN(CC=C)CCc1c[nH]c2cccc(O)c12 [4-HO-DALT, 4-hydroxy-N,N-diallyltryptamine]	2490 nM	> 10000 nM	> 10000 nM	2760 nM		
C=CCN(CC=C)CCc1c[nH]c2c(CC)cccc12 [7-Et-DALT, 7-ethyl-N,N-diallyltryptamine]	> 10000 nM	> 10000 nM	> 10000 nM	22 nM	~5 fold	
C=CCN(CC=C)CCc1c(C)[nH]c2ccc(OC)cc12 [5-MeO-2-Me-DALT, 5-methoxy-2-methyl-N,N-diallyltryptamine]	2270 nM	> 10000 nM	1200 nM	427 nM		
C=CCN(CC=C)CCc1c(-c2ccccc2)[nH]c2ccccc12 [2-Ph-DALT, 2-phenyl-N,N-diallyltryptamine]	273 nM	2790 nM	75 nM	> 10000 nM		< 10000 nM
